Results published in the Kinase Knowledgebase extract (Sharma et al. 2016).

Legend:
PIK3CD (Human) = PIK3CD (Human) (UniProt O00329); assay: Assessment of PIK3CD Kinase Activity
PIK3CG (human) = PIK3CG (human) (UniProt P48736); assay: Assessment of PIK3CG Kinase Activity
PIK3CA (human) = PIK3CA (human) (UniProt P42336); assay: Assessment of PIK3CA Kinase Activity
PIK3CB (Human) = PIK3CB (Human) (UniProt P42338); assay: Assessment of PIK3CB Kinase Activity
Chain of PIK3CB (Human) (P42338 whole entry, looked up): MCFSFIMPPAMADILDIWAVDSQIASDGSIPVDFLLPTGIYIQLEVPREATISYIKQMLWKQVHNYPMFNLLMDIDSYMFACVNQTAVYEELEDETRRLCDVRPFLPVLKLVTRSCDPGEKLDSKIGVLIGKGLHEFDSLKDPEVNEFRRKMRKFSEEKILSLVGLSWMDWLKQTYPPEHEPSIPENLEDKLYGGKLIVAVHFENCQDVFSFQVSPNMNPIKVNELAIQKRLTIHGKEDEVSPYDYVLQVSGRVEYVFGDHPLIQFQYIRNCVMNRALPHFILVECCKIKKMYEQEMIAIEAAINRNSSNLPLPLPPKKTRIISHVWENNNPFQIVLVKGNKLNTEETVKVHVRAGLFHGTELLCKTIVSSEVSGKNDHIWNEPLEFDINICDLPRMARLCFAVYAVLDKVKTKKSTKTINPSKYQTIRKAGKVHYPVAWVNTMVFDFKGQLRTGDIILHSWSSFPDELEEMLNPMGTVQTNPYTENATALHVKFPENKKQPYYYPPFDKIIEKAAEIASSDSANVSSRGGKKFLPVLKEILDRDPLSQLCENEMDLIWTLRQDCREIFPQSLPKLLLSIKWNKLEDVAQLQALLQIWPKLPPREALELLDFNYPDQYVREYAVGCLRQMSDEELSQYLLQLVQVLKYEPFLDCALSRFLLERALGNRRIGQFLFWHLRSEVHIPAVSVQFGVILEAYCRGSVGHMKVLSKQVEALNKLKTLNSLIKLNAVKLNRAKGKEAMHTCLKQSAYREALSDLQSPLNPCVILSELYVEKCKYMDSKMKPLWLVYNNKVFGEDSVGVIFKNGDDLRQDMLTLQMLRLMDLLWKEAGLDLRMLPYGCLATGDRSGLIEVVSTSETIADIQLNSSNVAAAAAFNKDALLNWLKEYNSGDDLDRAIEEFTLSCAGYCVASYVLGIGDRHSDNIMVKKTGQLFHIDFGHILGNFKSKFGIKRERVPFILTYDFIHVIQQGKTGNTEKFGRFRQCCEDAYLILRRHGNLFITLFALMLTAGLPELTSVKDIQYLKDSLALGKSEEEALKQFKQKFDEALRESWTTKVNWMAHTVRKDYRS

Chain of PIK3CA (human) (P42336 whole entry, looked up): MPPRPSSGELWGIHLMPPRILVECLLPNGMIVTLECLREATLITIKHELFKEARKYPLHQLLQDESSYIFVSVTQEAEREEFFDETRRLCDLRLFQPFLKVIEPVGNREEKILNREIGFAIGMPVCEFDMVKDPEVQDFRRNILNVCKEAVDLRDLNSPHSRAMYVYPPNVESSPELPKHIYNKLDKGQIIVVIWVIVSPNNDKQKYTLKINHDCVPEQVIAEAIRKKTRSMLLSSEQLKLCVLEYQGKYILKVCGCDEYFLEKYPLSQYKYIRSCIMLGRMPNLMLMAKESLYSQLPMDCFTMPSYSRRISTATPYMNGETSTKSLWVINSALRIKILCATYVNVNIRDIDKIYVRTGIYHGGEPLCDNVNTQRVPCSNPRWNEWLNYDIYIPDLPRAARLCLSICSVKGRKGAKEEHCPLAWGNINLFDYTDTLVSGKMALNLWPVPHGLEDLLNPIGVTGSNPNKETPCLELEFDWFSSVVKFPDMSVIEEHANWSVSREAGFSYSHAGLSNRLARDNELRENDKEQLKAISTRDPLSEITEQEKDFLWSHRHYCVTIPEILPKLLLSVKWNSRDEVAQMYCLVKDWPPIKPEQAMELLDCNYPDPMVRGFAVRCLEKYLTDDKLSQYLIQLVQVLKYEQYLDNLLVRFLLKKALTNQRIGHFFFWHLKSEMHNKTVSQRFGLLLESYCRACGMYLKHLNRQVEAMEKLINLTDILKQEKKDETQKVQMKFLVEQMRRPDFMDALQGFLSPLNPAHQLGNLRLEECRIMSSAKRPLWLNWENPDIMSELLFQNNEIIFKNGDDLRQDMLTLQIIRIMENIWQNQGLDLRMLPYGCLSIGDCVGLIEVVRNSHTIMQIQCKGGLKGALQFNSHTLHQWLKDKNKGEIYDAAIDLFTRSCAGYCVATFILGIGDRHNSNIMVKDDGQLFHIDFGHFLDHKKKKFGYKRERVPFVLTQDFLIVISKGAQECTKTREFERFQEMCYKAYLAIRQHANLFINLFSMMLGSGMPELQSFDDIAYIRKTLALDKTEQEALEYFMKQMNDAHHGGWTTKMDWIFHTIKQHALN
Chain of PIK3CG (human) (P48736 whole entry, looked up): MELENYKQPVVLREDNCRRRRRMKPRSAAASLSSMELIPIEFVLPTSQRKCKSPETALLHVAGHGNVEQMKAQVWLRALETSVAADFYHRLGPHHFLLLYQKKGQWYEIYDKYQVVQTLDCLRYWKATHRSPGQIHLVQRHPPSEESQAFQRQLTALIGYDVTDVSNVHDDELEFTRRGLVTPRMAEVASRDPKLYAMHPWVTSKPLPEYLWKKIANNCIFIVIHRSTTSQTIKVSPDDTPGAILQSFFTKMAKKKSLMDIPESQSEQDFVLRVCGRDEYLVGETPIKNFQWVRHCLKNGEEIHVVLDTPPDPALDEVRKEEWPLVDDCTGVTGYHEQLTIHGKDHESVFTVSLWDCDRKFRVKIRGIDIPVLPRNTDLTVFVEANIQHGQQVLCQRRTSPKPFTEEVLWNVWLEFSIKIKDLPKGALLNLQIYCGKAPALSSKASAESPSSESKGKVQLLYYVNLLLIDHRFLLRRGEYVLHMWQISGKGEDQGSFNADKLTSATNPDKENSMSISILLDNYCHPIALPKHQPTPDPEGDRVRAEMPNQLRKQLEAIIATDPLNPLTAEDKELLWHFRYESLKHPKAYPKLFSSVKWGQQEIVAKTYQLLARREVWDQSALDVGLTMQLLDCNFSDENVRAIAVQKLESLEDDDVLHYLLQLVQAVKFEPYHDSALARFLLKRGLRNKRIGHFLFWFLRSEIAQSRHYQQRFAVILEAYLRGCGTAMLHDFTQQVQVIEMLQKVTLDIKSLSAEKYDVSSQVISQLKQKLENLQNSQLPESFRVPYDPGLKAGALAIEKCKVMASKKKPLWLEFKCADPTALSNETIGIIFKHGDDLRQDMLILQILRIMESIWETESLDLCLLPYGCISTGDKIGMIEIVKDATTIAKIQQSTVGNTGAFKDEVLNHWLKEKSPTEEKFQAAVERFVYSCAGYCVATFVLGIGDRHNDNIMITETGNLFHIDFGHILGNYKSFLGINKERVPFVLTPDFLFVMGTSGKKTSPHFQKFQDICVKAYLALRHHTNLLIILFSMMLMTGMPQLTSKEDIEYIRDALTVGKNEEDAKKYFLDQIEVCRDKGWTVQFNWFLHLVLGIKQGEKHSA
Chain of PIK3CD (Human) (O00329 whole entry, looked up): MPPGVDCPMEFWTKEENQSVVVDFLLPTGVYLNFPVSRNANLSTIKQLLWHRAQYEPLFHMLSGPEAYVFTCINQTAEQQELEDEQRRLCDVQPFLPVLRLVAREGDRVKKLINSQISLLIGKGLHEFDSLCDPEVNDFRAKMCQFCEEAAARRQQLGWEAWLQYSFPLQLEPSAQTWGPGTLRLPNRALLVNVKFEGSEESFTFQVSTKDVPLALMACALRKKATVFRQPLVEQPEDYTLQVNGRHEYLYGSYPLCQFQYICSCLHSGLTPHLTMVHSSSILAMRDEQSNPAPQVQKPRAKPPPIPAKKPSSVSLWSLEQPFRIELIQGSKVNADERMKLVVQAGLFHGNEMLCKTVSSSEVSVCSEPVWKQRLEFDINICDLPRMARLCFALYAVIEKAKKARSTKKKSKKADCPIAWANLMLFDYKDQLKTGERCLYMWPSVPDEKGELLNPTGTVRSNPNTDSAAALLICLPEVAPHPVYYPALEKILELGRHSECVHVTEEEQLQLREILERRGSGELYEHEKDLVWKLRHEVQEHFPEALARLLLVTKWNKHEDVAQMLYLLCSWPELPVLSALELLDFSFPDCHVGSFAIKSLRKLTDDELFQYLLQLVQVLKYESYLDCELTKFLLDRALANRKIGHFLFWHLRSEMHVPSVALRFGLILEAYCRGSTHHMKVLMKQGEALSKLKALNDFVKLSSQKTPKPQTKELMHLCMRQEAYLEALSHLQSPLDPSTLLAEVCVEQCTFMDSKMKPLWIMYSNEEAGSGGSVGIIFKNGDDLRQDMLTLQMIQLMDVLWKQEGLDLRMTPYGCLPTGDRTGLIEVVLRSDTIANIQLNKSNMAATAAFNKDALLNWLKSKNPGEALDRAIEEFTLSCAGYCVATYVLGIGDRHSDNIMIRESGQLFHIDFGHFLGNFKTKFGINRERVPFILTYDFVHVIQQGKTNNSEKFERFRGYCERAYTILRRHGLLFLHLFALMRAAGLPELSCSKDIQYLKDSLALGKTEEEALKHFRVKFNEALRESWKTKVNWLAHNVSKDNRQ

Row | SMILES | IC50 (PIK3CD (Human)) [nM] | IC50 (PIK3CG (human)) [nM] | IC50 (PIK3CA (human)) [nM] | IC50 (PIK3CB (Human)) [nM]
1 | CN(C)[C@H]1CCN(C(=O)CNC(=O)Nc2nc3ccc(-c4cncc(S(=O)(=O)NC(C)(C)C)c4)cn3n2)C1 | < 100 | < 100 | 100 to 1000 | 100 to 1000
2 | CC(C)(C)NS(=O)(=O)c1cncc(-c2ccc3nc(NC(=O)NCCC(=O)N4CCCCC4)nn3c2)c1 | < 100 | < 100 |  | 
3 | CN(C(=O)CNC(=O)Nc1nc2ccc(-c3cncc(S(=O)(=O)NC(C)(C)C)c3)cn2n1)C1CC1 | < 100 | < 100 | 100 to 1000 | 
4 | COCCN1CCN(C(=O)CNC(=O)Nc2nc3ccc(-c4cncc(S(=O)(=O)NC(C)(C)C)c4)cn3n2)CC1 | < 100 | < 100 | 100 to 1000 | 100 to 1000
5 | CC(C)NS(=O)(=O)c1cncc(-c2ccc3nc(NC(=O)NCC(=O)N4CCCC4)nn3c2)c1 | < 100 | < 100 |  | 
6 | CC(C)(C)NS(=O)(=O)c1cncc(-c2ccc3nc(NC(=O)NCC(=O)N4CCCC4)nn3c2)c1 | < 100 | < 100 |  | 
7 | CC(C)(C)NS(=O)(=O)c1cncc(-c2cc(F)c3nc(NC(=O)NCC(=O)N4CCOCC4)nn3c2)c1 | < 100 | < 100 |  | 
8 | CC(C)(C)NS(=O)(=O)c1cncc(-c2ccc3nc(NC(=O)NCC(=O)N4CCOCC4)nn3c2)c1 | < 100 | < 100 | 100 to 1000 | 100 to 1000
9 | CC(C)(C)NS(=O)(=O)c1cncc(-c2ccc3nc(NC(=O)NCCC(=O)N4CCCC4)nn3c2)c1 | < 100 | < 100 |  | 100 to 1000
10 | CC(C)(C)NS(=O)(=O)c1cncc(-c2ccc3nc(NC(=O)NCC(=O)NC4CCNCC4)nn3c2)c1 | 100 to 1000 | < 100 |  | 100 to 1000
11 | CS(=O)(=O)c1cncc(-c2ccc3nc(NC(=O)NCC(=O)N4CCOCC4)nn3c2)c1 | 100 to 1000 | < 100 |  | 
12 | CC(C)(C)NS(=O)(=O)c1cncc(-c2ccc3nc(NC(=O)NCC(=O)N4CCC(N)CC4)nn3c2)c1 | < 100 | < 100 |  | 100 to 1000
13 | CC(C)(C)NS(=O)(=O)c1cncc(-c2cc(F)c3nc(NC(=O)NCC(=O)N4CCCC4)nn3c2)c1 | 100 to 1000 | < 100 |  | 
14 | CC(C)NS(=O)(=O)c1cncc(-c2ccc3nc(NC(=O)NCC(=O)N4CCOCC4)nn3c2)c1 | < 100 | < 100 | 100 to 1000 | 
15 | CN1CCN(C(=O)CNC(=O)Nc2nc3ccc(-c4cncc(S(=O)(=O)NC(C)(C)C)c4)cn3n2)CC1 | < 100 | < 100 | 100 to 1000 | 100 to 1000
16 | CC(C)(C)NS(=O)(=O)c1cncc(-c2ccc3nc(NC(=O)NCC(=O)N4CCCCC4)nn3c2)c1 | < 100 | < 100 | 100 to 1000 | 
17 | O=C(NCC(=O)N1CCCC1)Nc1nc2ccc(-c3cncc(C(F)(F)F)c3)cn2n1 |  | < 100 |  | > 10000
18 | CC(C)(C)NS(=O)(=O)c1cncc(-c2ccc3nc(NC(=O)NCC(=O)NC4CC4)nn3c2)c1 | 100 to 1000 | < 100 |  | 100 to 1000
